Laboratory results published in patent US11840527B2, “Non-fused thiophene derivatives and their uses” (ENYO PHARMA, priority 2018, dated 2023).

Columns and labels:
Assay in all cases: Cytotoxicity, propidium iodide-based monolayer assay
[1] = tested on: UXF 1138; format: cell-based; conditions: 96 h; UXF 1138, uterine sarcoma; four days of treatment; T/C=50%; read-out: Absolute IC50
Protocol: (§1) The cytotoxicity was tested for compounds of the invention on five different cell-lines, namely LXFL 1121, MAXF 401, MMXF L-636, PRXF PC-3M and UXF 1138 which are respectively lung large cell carcinoma, breast adeno carcinoma, multiple myeloma, prostate adeno carcinoma and uterine sarcoma.
(§2) Therefore, the compounds have a cytotoxicity against tumor cells and can be used for treating cancer. Materials and Methods Compound Handling A working stock solution of the test compounds was prepared in DMSO at a concentration of 33 mM or 8.25 mM, and small aliquots were stored at −20° C. On each day of an experiment, a frozen aliquot of the working stock solution was thawed and stored at room temperature prior to and during treatment. All liquid handling steps were performed using the Tecan Freedom EVO 200 platform. First, serial 2-fold dilutions of the 33 mM DMSO working stock solution were done in DMSO. The DMSO dilutions were then diluted 1:22 into cell culture medium in an intermediate dilution plate. Finally, 10 μl taken from the intermediate dilution plate were transferred to 140 μl/well of the final assay plate. Thus, the DMSO serial dilutions were diluted 1:330 with cell culture medium, and the DMSO concentration in the assay was 0.3% v/v. Tumor Cell Lines The cell lines used in this study were derived from solid tumors as well as from hematological malignancies. Cell lines were routinely passaged once or twice weekly and maintained in culture for up to 20 passages. Most cell lines were grown at 37° C. in a humidified atmosphere with 5% CO2 in RPMI 1640 medium (25 mM HEPES, with L-glutamine, #FG1385, Biochrom, Berlin, Germany) supplemented with 10% (v/v) fetal calf serum (Sigma, Taufkirchen, Germany) and 0.05 mg/mL gentamicin (Life Technologies, Karlsruhe, Germany). […] Briefly, cells were harvested from exponential phase cultures, counted and plated in 96 well flat-bottom microtiter plates at a cell density of 4,000 to 40,000 cells/well dependent on the cell line's growth rate. […] After an incubation period of 1-2 hours at room temperature, fluorescence (FU) was measured using the Enspire Multimode Plate Reader (excitation λ=530 nm, emission λ=620 nm) to quantify the amount of attached viable cells. Data Evaluation An assay was considered fully evaluable if the following quality control criteria were fulfilled: • Z′-factor calculated within the assay plate ≥0.5 • control/background ratio >3.0 • coefficient of variation in the growth control wells ≤30% Drug effects were expressed in terms of the percentage of the fluorescence signal, obtained by comparison of the mean signal in the treated wells with the mean signal of the untreated controls (expressed by the test-versus-control value, T/C-value [%]): […]

[2] = tested on: PRXF PC-3M; format: cell-based; conditions: Homo sapiens, 96 h, prostate adeno carcinoma, four days of treatment, T/C=50%, read-out: Absolute IC50
Protocol: as §1, §2

[3] = tested on: MAXF 401; format: cell-based; conditions: Homo sapiens, MAXF401, 96 h; MAXF 401, breast adeno carcinoma; four days of treatment; T/C=50%; read-out: Absolute IC50
Protocol: as §1, §2

[4] = tested on: MMXF L-363; format: cell-based; conditions: Homo sapiens, 96 h; MMXF L-363, multiple myeloma; four days of treatment; T/C=50%; read-out: Absolute IC50
Protocol: as §1, §2

[5] = tested on: LXFL 1121; conditions: 96 h; LXFL 1121, lung large cell carcinoma; four days of treatment; T/C=50%; read-out: Absolute IC50
Protocol: as §1
Therefore, the compounds have a cytotoxicity against tumor cells and can be used for treating cancer. Materials and Methods Compound Handling A working stock solution of the test compounds was prepared in DMSO at a concentration of 33 mM or 8.25 mM, and small aliquots were stored at −20° C. On each day of an experiment, a frozen aliquot of the working stock solution was thawed and stored at room temperature prior to and during treatment. All liquid handling steps were performed using the Tecan Freedom EVO 200 platform. First, serial 2-fold dilutions of the 33 mM DMSO working stock solution were done in DMSO. […] Briefly, cells were harvested from exponential phase cultures, counted and plated in 96 well flat-bottom microtiter plates at a cell density of 4,000 to 40,000 cells/well dependent on the cell line's growth rate. […] After an incubation period of 1-2 hours at room temperature, fluorescence (FU) was measured using the Enspire Multimode Plate Reader (excitation λ=530 nm, emission λ=620 nm) to quantify the amount of attached viable cells. […]

In the case of `O=C(Nc1scc(-c2ccc(Cl)c(F)c2)c1C(=O)O)c1ccccc1` [Compound #2, 2-Benzamido-4-(4-chloro-3-fluoro-phenyl)thiophene-3-carboxylic acid], the IC50 [1] is reported as 4.48 µM, the IC50 [2] is reported as 4.74 µM and the IC50 [3] is reported as 6.56 µM. The IC50 [4] was 11.9 µM and the IC50 [5] was 10.7 µM.
